Data set [1] relates to C57BL/Ks J Rj-db (db/db) mice. The data set can be described thus: Serum biomarkers in male db/db mice, simvastatin, metformin and combination per os for 5 days. The class given is in vivo, mouse. The conditions noted are these: oral once daily. The procedure: Male 12 weeks old C57BL/Ks J Rj-db (db/db) mice (Janvier, France), weighing in the target range of 30 to 50 g, were used in the study. They were housed 5 per cage in a temperature (19.5-24.5° C.) and relative humidity (45-65%) controlled room with a 12-h light/dark cycle, with ad libitum access to filtered tap-water and irradiated pelleted laboratory chow (ref. A04, SAFE, France) throughout the study. After acclimatization, they were randomized into groups of 10 according to homogeneous glycaemia:
Group 2: Metformin 150 mg/kg
The mice were given the treatment orally once daily for 5 consecutive days at constant time.

For data set [2], the system named is ZUCKER fa/fa rats. Put plainly: Serum biomarkers in Zucker obese (fa/fa) rats, simvastatin, metformin and combination per os for 5 days. As to conditions: oral.
Data set [3] has as its system Zucker obese (fa/fa) rats. As to conditions: serum, lovastatin 1 mg/kg/day and/or metformin 50 mg/kg twice a day p.o.
For data set [4] the following is noted: cited from earlier work.
For data set [5] the following is noted: cited from earlier work. This is another data set of the same source.
For data set [6] the following is noted: pH of 7.0; cited from earlier work.
The mark [7] stands for this setting: T0 (three days before treatment), metformin 150 mg/kg and/or simvastatin 30 mg/kg.
Setting [8] is: T0 (three days before treatment), simvastatin 300 mg/kg alone or with metformin 150 mg/kg.
The mark [9] stands for this setting: T0 (three days before treatment), simvastatin alone or with metformin 150 mg/kg.
Setting [10] is: T5 (five days after beginning of treatment), metformin 150 mg/kg and/or simvastatin 30 mg/kg.
[11] abbreviates: T5 (five days after beginning of treatment), simvastatin 300 mg/kg alone or with metformin 150 mg/kg.
[12] abbreviates: T5 (five days after beginning of treatment), simvastatin alone or with metformin 150 mg/kg.
[13] abbreviates: T0 (three days before treatment), simvastatin 0.5 mg/kg and/or metformin 50 mg/kg twice a day.
Where [14] appears, read: T0 (three days before treatment), simvastatin 1 mg/kg alone or with metformin 50 mg/kg twice a day.
The mark [15] stands for this setting: T5 (five days after beginning of treatment), simvastatin 0.5 mg/kg and/or metformin 50 mg/kg twice a day.
[16] abbreviates: T5 (five days after beginning of treatment), simvastatin 1 mg/kg alone or with metformin 50 mg/kg twice a day.
The mark [17] stands for this setting: T0 (three days before beginning of treatment).
The mark [18] stands for this setting: T5 (five days after beginning of treatment).
Setting [19] is: water (distilled water for atorvastatin), in words.

Like-named read-outs stand apart in the source and are kept apart here. Bounds are passed on as bounds.

On to `CCC(C)(C)C(=O)O[C@H]1C[C@@H](C)C=C2C=C[C@H](C)[C@H](CC[C@@H]3C[C@@H](O)CC(=O)O3)[C@H]21` [Simvastatin], for which the Glucose in data set [1] (setting [7]) came to 36.27 mM; in data set [1] (setting [8]), 36.91 mM; in data set [1] (setting [10]), 25.95 mM; in data set [1] (setting [11]), 21.18 mM; in data set [2] (setting [13]) it was 6.63 mM; in data set [2] (setting [14]) it was 7.08 mM. Besides, the Glucose in data set [2] (setting [15]) was 9.44 mM; in data set [2] (setting [16]) it was 8.35 mM. Moreover, the Insulin turned out to be 4.60 nM in data set [1] (setting [7]); 4.86 nM in data set [1] (setting [9]); 2.74 nM in data set [1] (setting [10]); 2.37 nM in data set [1] (setting [12]); 0.55 nM in data set [2] (setting [13]); 0.63 nM in data set [2] (setting [14]). The Insulin is given as 0.76 nM in data set [2] (setting [15]) and 0.67 nM in data set [2] (setting [16]). Moreover, the NEFA in data set [1] (setting [7]) is 0.646 mM; in data set [1] (setting [9]), 0.639 mM; in data set [1] (setting [10]) it was 0.897 mM; in data set [1] (setting [12]) it was 0.785 mM. Further, the “Total Cholesterol” value in data set [1] (setting [7]) worked out at 2.96 mM; in data set [1] (setting [8]), 2.95 mM; in data set [1] (setting [10]) it was 3.33 mM; in data set [1] (setting [11]), 2.87 mM; in data set [2] (setting [13]), 2.46 mM; in data set [2] (setting [14]) it was 2.48 mM. Further, the “Total Cholesterol” value in data set [2] (setting [15]) is 2.46 mM; in data set [2] (setting [16]) it was 2.60 mM. In addition, the Triglycerides in data set [1] (setting [7]) came out at 1.34 mM; in data set [1] (setting [9]), 1.44 mM; in data set [1] (setting [10]), 1.49 mM; in data set [1] (setting [12]) it was 0.78 mM; in data set [2] (setting [13]) it was 4.61 mM; in data set [2] (setting [14]), 4.67 mM. Moreover, the Triglycerides in data set [2] (setting [15]) turned out to be 5.23 mM; in data set [2] (setting [16]), 5.89 mM. In addition, the “HDL C” value in data set [2] (setting [13]) stood at 2.32 mM; in data set [2] (setting [14]) it was 2.34 mM; in data set [2] (setting [15]) it was 2.32 mM; in data set [2] (setting [16]), 2.43 mM.
On to `CN(C)C(=N)N=C(N)N` [Metformin], for which, in data set [1] (setting [7]), the Glucose is reported as 37.00 mM, the Insulin was 4.60 nM, the NEFA is given as 0.654 mM and the “Total Cholesterol” value came out at 3.07 mM. In data set [1] (setting [7]), the Triglycerides is recorded as 1.30 mM. Further, in data set [1] (setting [10]), the Glucose came out at 23.03 mM, the Insulin came to 2.82 nM, the NEFA is listed as 0.798 mM and the “Total Cholesterol” value is on record as 3.63 mM. Moreover, in data set [1] (setting [10]), the Triglycerides is listed as 1.34 mM. Also, in data set [3] (setting [17]), the Glucose was 8.27 mM, the “HDL C” value amounted to 2.08 mM, the Insulin is given as 0.34 nM and the “Total Cholesterol” value is 2.55 mM. This compound also came in with a Triglycerides in data set [3] (setting [17]) of 4.08 mM. Also, in data set [3] (setting [18]), the Glucose came to 7.73 mM, the “HDL C” value turned out to be 2.25 mM, the Insulin amounted to 0.38 nM and the “Total Cholesterol” value amounted to 2.72 mM. For the same compound, in data set [3] (setting [18]), the Triglycerides is given as 5.17 mM. Further, in data set [2] (setting [13]), the Glucose stood at 6.69 mM, the “HDL C” value is recorded as 2.30 mM, the Insulin is given as 0.63 nM and the “Total Cholesterol” value is given as 2.47 mM. For the same compound, the Triglycerides in data set [2] (setting [13]) worked out at 4.18 mM. In data set [2] (setting [15]), the Glucose is 9.23 mM, the “HDL C” value is given as 2.16 mM, the Insulin turned out to be 0.71 nM and the “Total Cholesterol” value is 2.32 mM. In addition, the Triglycerides in data set [2] (setting [15]) came to 5.12 mM.
Regarding `CC[C@H](C)C(=O)O[C@H]1C[C@@H](C)C=C2C=C[C@H](C)[C@H](CC[C@@H]3C[C@@H](O)CC(=O)O3)[C@H]21` [Lovastatin], the solubility in water entry in data set [4] (setting [19]) is on record as “insoluble”. Besides, in data set [3] (setting [17]), the Glucose turned out to be 7.88 mM, the “HDL C” value stood at 2.00 mM, the Insulin was found to be 0.35 nM and the “Total Cholesterol” value was determined as 2.38 mM. This compound showed a Triglycerides in data set [3] (setting [17]) of 4.18 mM. Further, in data set [3] (setting [18]), the Glucose came out at 8.21 mM, the “HDL C” value is on record as 2.16 mM, the Insulin turned out to be 0.39 nM and the “Total Cholesterol” value came to 2.54 mM. This compound also yielded a Triglycerides in data set [3] (setting [18]) of 4.79 mM.
As for `COCc1c(C(C)C)nc(C(C)C)c(/C=C/[C@@H](O)C[C@@H](O)CC(=O)O)c1-c1ccc(F)cc1` [Cerivastatin], the solubility in water result in data set [4] (setting [19]) is recorded as “soluble”. In addition, the “effect of food on absorption” value in data set [5] (oral administration with food) is recorded as “not sensitive to a food effect”.
For the compound `CC[C@H](C)C(=O)O[C@H]1C[C@H](O)C=C2C=C[C@H](C)[C@H](CC[C@@H](O)C[C@@H](O)CC(=O)O)[C@H]21` [Pravastatin], the solubility in water in data set [4] (methanol and water) is given as over 300 mg/mL. Moreover, in data set [6], the “partition coefficient (octanol/water)” value is on record as 0.59.
`CC(C)n1c(/C=C/C(O)CC(O)CC(=O)O)c(-c2ccc(F)cc2)c2ccccc21` (stereo not drawn) [Fluvastatin]: the solubility in water result in data set [4] (setting [19]) was “soluble”. For the same compound, the “time to peak concentrations” value in data set [5] (following oral administration) is “less than 1 hour”.

(Values after US20060240095A1, “Pharmaceutical composition comprising a combination of metformin and a statin” (priority 2003, published 2006).)
